According to patent US20240148714A1, “Triple Negative Breast Cancer Treatment Method” (Exelixis, Inc., priority 2016, published 2024):
Entries after “also recorded” stand apart in the source; their conditions may differ.

Tested on: plasma biomarkers
Assay: Circulating biomarker assays: plasma proteins (multiplex arrays, ELISA)
Type: in vivo, human
Parameters: plasma VEGF R2, Median / plasma bFGF, Median / plasma sPLT-3, Median / plasma VEGF, Median / plasma VEGF-D, Median / plasma sMET, Median: unit not given beside the values
Source text: Circulating Biomarker Assays: Potential biomarkers of cabozantinib activity were identified by measuring plasma proteins at baseline, on day 8 of therapy, on day 1 of each cycle of therapy, and, if available, at the time of progression. Eight milliliters of blood was collected in purple top (plasma EDTA) vacutainers and shipped on wet ice to a Clinical Laboratory Improvement Amendments-certified core in the Steele Laboratories (Massachusetts General Hospital), where whole blood was separated by centrifugation into cellular fraction and plasma. The fraction of stem/progenitor cell, lymphocyte, and myeloid populations of total circulating mononuclear cells were counted by flow cytometry using a LSR-II cytometer and FACSDiva software in fresh blood samples using the following markers: CD3, CD4, CD8, CD14, CD25, CD34, CD45, CD56, CD127, and CD133 (Becton Dickinson, Franklin Lakes, NJ, www.bd.com). Plasma was prepared in the standard fashion and stored at −78° C. until collection and analysis of all samples. The biomarkers measured included VEGF, placental growth factor (PlGF), VEGF-C, VEGF-D, soluble VEGFR1 (sVEGFR1), basic fibroblast growth factor (bFGF), and sTie-2 (using a 7-plex Growth Factor array) and granulocyte-macrophage colony stimulating factor (GM-CSF), interferon gamma (IFN-g), tumor necrosis factor alpha (TNF-a), and interleukin-1beta (IL-1b), IL-2, IL-6, IL-8, IL-10, and IL-12 heterodimer p70 (using a 9-plex Inflammatory Factor array; both Meso Scale Discovery, Gaithersburg, MD, www.mesoscale.com); and HGF, sMET, carbonic anhydrase IX (CAIX), stromal cell-derived factor 1 a (SDF1a), and sVEGFR2 by single analyte enzyme-linked immunosorbent assay (R&D Systems, Minneapolis, MN, www.rndsystems.com). Descriptive statistics were used to summarize biomarker values at protocol-specific time points. […] The Wilcoxon signed rank test assessed biomarker change from day 1 to 8. Mixed effects linear models assessed the change in biomarker values at days 1, 8, 22, 43, and 64; values beyond day 64 were not analyzed because of the small number of patients still on protocol. In the mixed effects linear model, the fixed effects were times of assessment, and patients were entered as a random effect. Logarithmic transformation was used to achieve normality, when applicable. Baseline biomarkers were stratified by using the median values for the entire cohort. The log-rank test compared PFS among patients with low or high baseline sMET. All tests were conducted with two-sided […]. The Benjamini-Hochberg procedure was used to adjust p values to control the false discovery rate from evaluating multiple circulating biomarkers.

[1] = baseline to day 22, maintained at day 64

Structure (SMILES): COc1cc2nccc(Oc3ccc(NC(=O)C4(C(=O)Nc5ccc(F)cc5)CC4)cc3)c2cc1OC [cabozantinib]
- plasma VEGF R2, Median (Day 1 (baseline)): 8.872
- plasma VEGF, Median (Day 1 (baseline)): 98
- plasma VEGF-D, Median (Day 1 (baseline)): 1.062
- plasma bFGF, Median (Day 1 (baseline)): 39
- plasma sMET, Median (Day 1 (baseline)): 795
- plasma sPLT-3, Median (Day 1 (baseline)): 1.24
- plasma VEGF R2, Median (Day 8): 8.475
- plasma VEGF, Median (Day 8): 188
- plasma VEGF-D, Median (Day 8): 1.419
- plasma bFGF, Median (Day 8): 41
- plasma sMET, Median (Day 8): 890
- plasma sPLT-3, Median (Day 8): 50
- plasma VEGF R2, Median (Day 22): 6.726
- plasma VEGF, Median (Day 22): 206
- plasma VEGF-D, Median (Day 22): 1.582
- plasma bFGF, Median (Day 22): 28
- plasma sMET, Median (Day 22): 902
- plasma sPLT-3, Median (Day 22): 90
- plasma VEGF R2, Median (Day 43): 5.812
- plasma VEGF, Median (Day 43): 206
- plasma VEGF-D, Median (Day 43): 1.437
- plasma bFGF, Median (Day 43): 33
- plasma sMET, Median (Day 43): 903
- plasma sPLT-3, Median (Day 43): 124
- plasma VEGF R2, Median (Day 64): 5.968
- plasma VEGF-D, Median (Day 64): 1.429
- plasma bFGF, Median (Day 64): 21
- plasma sMET, Median (Day 64): 923
- plasma sPLT-3, Median (Day 64): 87
- change in plasma PIGF [1]: increases
- change in plasma VEGF [1]: increases
- change in plasma VEGF-D [1]: increases
- change in plasma HGF (day 8): initially decreased
- change in plasma SDF1a (day 22): transiently increased; also recorded: increases
- change in plasma HGF (day 64): increased
- change in plasma CAIX (days 43 and 64): increases
- change in plasma sVEGFR2 (days 43 and 64): significantly decreased
- change in plasma bFGF over time (in vivo): did not significantly change
- change in plasma sMET over time (in vivo): did not significantly change
- change in plasma sTIE-2 over time (in vivo): did not significantly change
- change in plasma sVEGFR1 over time (in vivo): did not significantly change
